This experiment deals with T1, VGLUT1 (Rattus norvegicus, UniProt Q62634).
T1 construct: only the hippocampus and the cerebral cortex were selected and isolated; endogenous in cells; host or cells: primary neurons from hippocampus and cerebral cortex of Sprague Dawley rat fetuses
T1 sequence (Q62634 1-560): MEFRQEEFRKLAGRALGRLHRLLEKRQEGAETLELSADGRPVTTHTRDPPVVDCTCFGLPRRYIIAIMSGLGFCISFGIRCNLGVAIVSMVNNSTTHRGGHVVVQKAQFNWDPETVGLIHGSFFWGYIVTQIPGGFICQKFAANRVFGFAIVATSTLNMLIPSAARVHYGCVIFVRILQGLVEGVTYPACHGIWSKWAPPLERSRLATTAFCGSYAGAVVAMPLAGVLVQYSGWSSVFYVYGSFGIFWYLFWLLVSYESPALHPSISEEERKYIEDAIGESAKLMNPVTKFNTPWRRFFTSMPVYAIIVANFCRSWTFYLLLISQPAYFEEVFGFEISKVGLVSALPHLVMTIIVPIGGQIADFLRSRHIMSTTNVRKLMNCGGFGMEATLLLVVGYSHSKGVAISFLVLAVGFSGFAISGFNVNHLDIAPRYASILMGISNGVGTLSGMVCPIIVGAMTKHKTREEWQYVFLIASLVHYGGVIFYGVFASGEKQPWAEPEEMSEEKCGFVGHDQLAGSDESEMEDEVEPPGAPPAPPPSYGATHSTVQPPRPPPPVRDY
Description: In vitro binding test via primary culture: MR phantom study. The format is cell-based, Sprague Dawley rats. Particulars: primary rat brain neurons, 0, 50, 100, 200, 400 μM, 24 hours, washed, 3T MRI; FIG. 6A/6B. The method, then:
2) In Vitro Binding Test Via Primary Culture 2)-(1). Experimental Method {circumflex over (1)} Primary Culture of Rat Brain Neurons
Sprague Dawley rats at […] of pregnancy were purchased from Daehan Biolink. After stabilizing the pregnant […], respiratory anesthesia was performed using isoflurane, and the fetus was separated from the mother. The fetal brain was separated therefrom, the membrane was removed therefrom, and only the hippocampus and the cerebral cortex were selected and isolated, cut into small pieces, put in HBSS buffer and washed 4 times (centrifugation 1000 rpm, 3 minutes). After the last washing, HBSS was removed, and HBSS buffer containing trypsin was added thereto (cell volume: trypsin HBSS=1:1) and reaction occurred in a constant temperature water bath (37° C.) for 5 minutes. HBSS buffer containing 10% FBS was added thereto ((cell volume+trypsin HBSS): 10% FBS HBSS=1:1) to stop the enzyme reaction of trypsin, and the resulting product passed through 4 layers of lens paper and thus was formed into single cells. The cells were washed 4 times via centrifugation with HBSS buffer, and only the cells separated into the single cells were obtained. […]
The obtained cells were suspended in neurobasal media containing 1×N2 supplement, 1×B27, 4 mM L-glutamine, and 1% antibiotics at 7×10^6 cells per E-tube. […] MRI intensity was analyzed using ImageJ program.

The record followed here is US12466843B2, “Gadolinium-based compound, method for producing same, and MRI contrast agent containing same” (KYUNGPOOK NATIONAL UNIVERSITY INDUSTRY-ACADEMIC COOPERATION …, priority 2019, dated 2025).

On to `O=C([O-])CN1CCN(CC(=O)[O-])CCN([C@H](CO)[C@H](O)CO)CCN(CC(=O)[O-])CC1.[Gd+3]` (racemic) [Gadovist], for which the “phantom signal intensity (brightness) based on Gd concentration” value is “little difference in brightness based on the Gd concentration”.
